Results taken from ChEMBL document CHEMBL5042478, “Design, Synthesis, and Evaluation of VHL-Based EZH2 Degraders to Enhance Therapeutic Activity against Lymphoma” (J Med Chem, 2021).
Calls of active or inactive are those of the source. The calls are words filed in the database; no cut-off is given here.

Experiments:
SU-DHL-6 [1] = assay: Induction of cell cycle arrest in human SU-DHL-6 cells assessed as accumulation of cells at G0/G1 phase at 1 to 5 uM after 24 hrs by flow cytometry; type: functional, cell-based; conditions: dose 1-5 µM
SU-DHL-2 [2] = assay: Antiproliferative activity against human SUDHL2 cells assessed as viable cells at 10 uM by cello meter auto T4 cell counter relative to control; type: functional; conditions: read-out: Activity
SU-DHL-6 [3] = assay: Antiproliferative activity against human SU-DHL-6 cells assessed as viable cells at 10 uM by cello meter auto T4 cell counter relative to control; type: functional; conditions: read-out: Activity
SU-DHL-2 [4] = assay: Antiproliferative activity against EZH2 knockdown human SUDHL2 cells assessed as cell growth inhibition measured upto 6 days; type: functional, cell-based; conditions: time day <=6
SUD4 = assay: Antiproliferative activity against human SU-DHL-4 cells assessed as viable cells at 10 uM by cello meter auto T4 cell counter relative to control; type: functional; conditions: read-out: Activity
SU-DHL-6 [5] = assay: Induction of apoptosis in human SU-DHL-6 cells at 1 to 5 uM incubated for 48 hrs by Annexin V/propidium iodide staining based flow cytometry; type: functional, cell-based; conditions: dose 1-5 µM
SU-DHL-6 [6] = assay: Induction of cell cycle arrest in human SU-DHL-6 cells assessed as accumulation of cells at sub G1 phase at 1 to 5 uM after 24 hrs by flow cytometry; type: functional, cell-based; conditions: dose 1-5 µM
SU-DHL-6 [7] = assay: Antitumor activity against human SU-DHL-6 cells xenografted in nude Balb/c mouse assessed as reduction in H3K27me3 level in tumor tissue at 42.5 mg/kg, ip administered for 6 times weekly for 3 weeks by Western blot analysis; type: functional, organism-based
[8] = Toxicity in nude BALB/c mouse xenografted with SU-DHL-6 cells assessed as weight loss at 42.5 mg/kg, ip administered for 6 times weekly for 3 weeks; type: organism-based; conditions: in vivo, 504 h

CCN(c1cc(-c2ccc(CN3CCOCC3)cc2)cc(C(=O)NCc2c(C)cc(C)[nH]c2=O)c1C)C1CCOCC1 [TAZEMETOSTAT]
Activity (SU-DHL-6 [1]): Active
viability at 10 µM (SU-DHL-2 [2]): 25%
viability at 10 µM (SU-DHL-6 [3]): 25%
Activity (SU-DHL-2 [4]): Active
viability at 10 µM (SUD4): 25%
Activity (SU-DHL-6 [5]): inactive
Activity (SU-DHL-6 [6]): inactive
Activity (SU-DHL-6 [7]): Active
Activity [8]: Non-Toxic
